The source of these data is patent US8809386B2, “Use of dynamin ring stabilizers” (Children's Medical Research Institute, priority 2009, dated 2014).

One assay has as its target T1, full length dynamin I (Ovis aries, UniProt A0ACI6NZN1).
T1 sequence (A0ACI6NZN1 1-864): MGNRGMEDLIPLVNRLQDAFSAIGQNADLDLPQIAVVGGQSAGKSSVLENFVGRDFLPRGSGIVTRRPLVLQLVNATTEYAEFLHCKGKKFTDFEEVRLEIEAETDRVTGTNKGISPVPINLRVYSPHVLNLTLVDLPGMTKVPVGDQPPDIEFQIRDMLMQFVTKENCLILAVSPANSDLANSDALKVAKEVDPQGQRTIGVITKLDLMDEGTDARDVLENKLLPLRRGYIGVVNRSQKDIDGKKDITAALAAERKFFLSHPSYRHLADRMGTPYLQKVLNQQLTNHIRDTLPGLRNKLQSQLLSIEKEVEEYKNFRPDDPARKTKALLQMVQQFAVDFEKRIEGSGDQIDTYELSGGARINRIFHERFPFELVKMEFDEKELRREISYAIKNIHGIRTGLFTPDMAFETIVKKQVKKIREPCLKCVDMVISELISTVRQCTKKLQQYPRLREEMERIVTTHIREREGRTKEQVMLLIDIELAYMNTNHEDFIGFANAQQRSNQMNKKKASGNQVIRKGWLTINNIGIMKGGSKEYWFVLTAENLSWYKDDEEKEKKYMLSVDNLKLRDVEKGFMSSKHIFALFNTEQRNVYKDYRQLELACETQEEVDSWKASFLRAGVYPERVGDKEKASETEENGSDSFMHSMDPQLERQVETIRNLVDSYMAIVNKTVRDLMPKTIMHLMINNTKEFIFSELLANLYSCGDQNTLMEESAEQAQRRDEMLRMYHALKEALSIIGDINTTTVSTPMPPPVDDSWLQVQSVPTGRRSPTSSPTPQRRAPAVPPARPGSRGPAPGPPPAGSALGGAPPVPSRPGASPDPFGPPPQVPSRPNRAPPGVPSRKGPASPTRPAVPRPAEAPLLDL
Briefly: Basal dynamin GTPase activity in the absence of PS liposomes or other template (ring stabilizer activity). Format: biochemical, sheep. As for the experimental part:
The compounds were present at the indicated concentrations and the concentration causing half-maximal stimulation is shown as the EC50.
Dynamin I (50 nM) GTPase stimulation was performed in the absence of the detergent Tween-80 (and in the absence of any known activators such as PS liposomes, nanotubes or microtubules). […] The GTPase activity of dynamin I (dynI; 200 nM) was measured in the absence of lipid activators (and in the presence of standard Tween-80 at 0.06%).
A compound (whether a dynamin inhibitor or not) can be identified as a dynamin ring stabilizer by assaying for its capacity to promote accumulation of dynamin rings and/or to inhibit disassembly of dynamin rings. […] GTPase activity of dynamin or dynamin rings can be determined by any conventionally known method (e.g., see Quan and Robinson. 2005). Such conditions include: (a) the absence of a helix assembly template such as liposomes, microtubules or lipid nanotubes, and (b) higher concentrations of dynamin than normally required for detecting template stimulated activity, typically 50-500 nM dynamin instead of 1-20 nM. Thus, ring stabilizer activity can be identified by the ability to stimulate the GTPase activity of full length dynamin in the absence of other stimulatory factors (such as PS liposomes, microtubules or nanotubes). Additional defining characteristics are available but are not essential if the first condition has been met. One such additional characteristic of ring stabilizer activity is that the stimulated activity occurs after a lag phase of a few minutes, rather than being an immediate activation in vitro. […] Such conditions typically mean utilising 50-200 nM dynamin in the absence of a template as distinct from higher concentrations where self-assembly is known to occur without the addition of a dynamin ring stabilizer.
Next, a time course experiment of Bis-T-23 stimulation of dynamin GTPase (FIG. 3) was conducted. […] The lag phase is thought to indicate the time required for dynamin to assemble as rings.

The subject of a further assay is dynamin I. Briefly: Dynamin disassembly centrifugation assay, helix preassembled on PS liposomes. Particulars: FIG. 7. The format is biochemical. As for the experimental part:
Briefly, dynamin I was preassembled as a helix in the presence of PS liposomes for 30 min, after which the dynamin ring stabilizer Bis-T-23 or non-dynamin ring stabilizer dynole 34-2 (see Example 4) were added. The samples were then centrigued in a microfuge for 10 min to collect supernatans (Sup) or pellets. In this assay, helical dynamin is found primarily in the pellet. However, the addition of either NaCl (150 mM) or Mg/GTP (1 mM) is known to disassemble dynamin and it is found primarily in the supernatant (see FIG. 7). […] This unique mechanism of action explains why dynamin ring stabilizers can stimulate basal GTPase while inhibiting helical dynamin GTPase activity at the same time.

The subject of a further assay is cultured mouse podocytes. Kind of assay: Actin cytoskeleton and focal adhesions in cultured podocytes (rhodamine-phalloidin, anti-paxillin). Particulars: 10 min after addition. Format: cell-based. How it is done:
FIG. 19 is a photograph showing the effects of Bis-T-23 on the actin cytoskeleton in podocytes. Cells were stained using rhodamine-phalloidin for F-actin (left column) and anti-paxillin monoclonal antibody (centre column). The merged staining is shown on the right column.
(§1) To determine if the in vitro action of the dynamin ring stabilizers also occurs in cells, the effect of Bis-T-23 on the actin cytoskeleton in cultured mouse podocytes was tested (FIG. 19). […] Thus, the observed increase in stress fibers is unlikely due to inhibition of endocytosis.

A further assay relates to endocytosis. Briefly: Endocytosis in cells (data not shown). The format is cell-based. How it is done:
as §1

For assay [1], the system named is LPS-induced proteinuria, BALB/c mice. Briefly: LPS-induced proteinuria in mice. Format: in vivo, mouse. Particulars: IP, 300 μg per 100 g body weight. How it is done:
FIG. 21 is a graph showing that the ring stabilizer Bis-T-23 rescues proteinuria in lipopolysaccharide (LPS) treated mice. LPS is a model for proteinuric kidney disease. Albumin levels were determined in 6 mice prior to (Con), 24 hours after LPS injection (2×LPS), and 2, 4, 6 and 8 h after administration of Bis-T-23 (open bars) or DMSO (delivery solution, grey bars). A decrease in proteinuria was noted from 2-8 hours after administration of a single dose of this ring stabilizer.
A second model of acute proteinuria was then employed to test the ability of a dynamin ring stabilizer to ameliorate proteinuria in a reversible model of proteinuric kidney disease. LPS-induced proteinuria was utilized as previously described (Sever et al., 2007). Briefly, four week old female BALB/c mice were injected twice intraperitoneally (IP) with 200 μg of ultrapure LPS diluted in phosphate-buffered saline at a concentration of 1 mg/ml. Proteinuria developed within 48 h (FIG. 20, 2×LPS). Bis-T-23 was dissolved in DMSO to the appropriate concentrations and 300 μg per 100 g body weight was delivered by IP injection, and DMSO was used as a vehicle control. The level of protein in the urine was determined by using mouse Albumin-specific ELISA kit according to manufacturer's protocol (Bethyl Laboratories).

Some results are limits rather than exact numbers.

With `N#CC(=Cc1cc(O)c(O)c(O)c1)C(=O)NCCCNC(=O)C(C#N)=Cc1cc(O)c(O)c(O)c1` [Bis-T-23, 2-cyano-N-{3-[2-cyano-3-(3,4,5-trihydroxyphenyl)-acryloylamino]-propyl}-3-(3,4,5-trihydroxyphenyl)-acrylamide], the “lag phase before stimulation of dynamin GTPase activity” value at full length dynamin I (5 μM, 800 nM dynamin, 30 mM NaCl, FIG. 3) is listed as “about 4 minutes”. Moreover, the “stimulation of basal dynamin GTPase activity in the absence of Tween-80” value on full length dynamin I (Dynamin I 50 nM, no Tween-80, no activators, FIG. 11A) is “are dynamin ring stabilizers”. On full length dynamin I (FIG. 2, compared with IC50 of 500 nM), the “concentration causing 50% activation of basal dynamin activity (EC50)” value was “about the same value”. The “dynamin concentration at which basal GTPase activity is stimulated” value at full length dynamin I (absence of liposomes, 5 μM, FIG. 1) is recorded as at least 100 nM. The “disassembly of helical dynamin by NaCl (150 mM) or Mg/GTP (1 mM)” value with dynamin I is recorded as “reduce the disassembly of helical dynamin”. Besides, the “stress fibers in podocytes” value in the assay on cultured mouse podocytes (FIG. 19) is recorded as “dramatic increase in well-defined stress fibers”. The “number of focal adhesions (paxillin staining)” value in the assay with cultured mouse podocytes (FIG. 19B) was “dramatic increase in the number of focal adhesions”. Further, the endocytosis result in the assay on endocytosis is “inhibits endocytosis”. For the same compound, the “proteinuria (urine albumin)” value in assay [1] (2-6 h after injection, FIG. 21) is reported as “partially rescued proteinuria”; in assay [1] (8 h after injection), “ability to rescue proteinuria was reduced”.
